Test results as given in patent publication US11261194B2, “Production method of diol” (MITSUBISHI GAS CHEMICAL COMPANY, INC., priority 2017, dated 2022).
In brackets after ≈: the same amount, converted by molar mass.

Experiment: solubility in water at 25° C.
Type: physicochemical

solubility in water at 25° C. [mg/mL]	solubility [mg/mL]	SMILES
≤ 0.5	–	CC1(CO)COC2(CCC3(CC2)OCC(C)(CO)CO3)OC1 (stereo not shown) [compound B]
–	750 (≈ 6690 mM)	O=C1CCC(=O)CC1 [1,4-cyclohexanedione]
≥ 100	–	CC(CO)(CO)CO [trimethylolethane]
≤ 0.5	–	CCC1(CO)COC2(CCC3(CC2)OCC(CC)(CO)CO3)OC1 (stereo not shown) [compound A]
